According to PubChem BioAssay AID720513 (Broad Institute, 2013):
Results filed as inconclusive are left out.

Test system: U2OS PGC1a acetylation AlphaLISA, overnight
Assay: activators raising PGC1a acetylation in cells, dose response, cell-based, cherry-picked samples, set 6 (AID 720513);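 note: cells made to overexpress flag tagged PGC1a plus GCN5 acetyltransferase by viral infection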

O=C(CSc1nc2c(sc3ccccc32)c(=O)n1CCc1ccccc1)NCc1ccco1
AC40: 18.1 µM

Cc1cc2cc3c(cc2nc1SCC(=O)OC(C)C)OCCO3
AC40: 11.5 µM

Cc1ccc(NC(=O)c2c(C(F)(F)F)nn(C)c2SCc2ccc(Cl)cc2)cc1C
AC40: 5.5 µM

C[C@@H]1CN([C@@H](C)CO)C(=O)c2c(c3ccccc3n2C)-c2ccccc2CO[C@@H]1CN(C)C(=O)Oc1ccccc1
AC40: 7.26 µM

COc1ccc(S(=O)(=O)N(C)C[C@@H]2Oc3cc(C#CC4CC4)ccc3S(=O)(=O)N([C@@H](C)CO)C[C@@H]2C)cc1
AC40: 15.2 µM

C[C@@H]1CN([C@@H](C)CO)C(=O)c2c(c3ccccc3n2C)-c2ccccc2CO[C@@H]1CN(C)C(=O)Nc1ccccc1C(F)(F)F
AC40: 6.99 µM

Cc1cccc(C)c1-n1nnnc1C(c1ccccc1OC(F)(F)F)N1CCC(n2c(=O)[nH]c3ccccc32)CC1 (stereo not drawn)
AC40: 3.94 µM

COC(=O)[C@@]1(C)[C@H]2C(=O)N(Cc3ccccc3)C(=O)[C@H]2[C@H]2CN=C(SCC3CC3)N21
AC40: 16.8 µM

COc1ccc(C(c2nnnn2C2CCCCC2)N2CCC3(CC2)C(=O)NCN3c2ccccc2)cc1 (stereo not drawn)
AC40: 3.46 µM

CCOCCn1c(CN(Cc2ccccc2)Cc2ccccc2)nc2c1c(=O)[nH]c(=O)n2C
AC40: 5.12 µM

Cc1ccc2[nH]cc(C(=O)CN3CCN(c4ccccc4F)CC3)c2c1
AC40: 2.99 µM

COc1ccc(NC(=O)C2(C)Cc3c(-c4cccc(NC(C)=O)c4)ccnc3O2)cc1 (stereo not drawn)
AC40: 17.1 µM

COC(=O)C[C@@H]1C[C@H]2c3cc(NC(=O)Nc4ccc(C(F)(F)F)cc4)ccc3O[C@H]2[C@H](CO)O1
AC40: 8.45 µM

COc1cc2cc(-c3ccc(O)cc3O)nc(C)c2cc1OC
AC40: 19.3 µM

CCOC(=O)c1sc2nc(C)nc(NCc3ccccc3OC)c2c1C
AC40: 3.12 µM

O=C(CN1CCC(n2nnc3ccccc32)CC1)NCc1cccs1
AC40: 1.67 µM

Cc1cc(C)nc(NC(=O)c2c(-c3ccccc3Cl)noc2C)n1
AC40: 16.8 µM

O=C(Nc1cccnc1)c1ccc(Br)s1
AC40: 0.601 µM

CCOCCn1c(CN(Cc2ccccc2)Cc2ccccc2)nc2c1c(=O)n(C)c(=O)n2C
AC40: 6.65 µM

COc1cccc(C(=O)/C=C/c2ccc(OCC#N)c(OC)c2)c1
AC40: 6.74 µM

CCOc1ccc(S(=O)(=O)N2c3ccccc3CC2C)cc1 (stereo not drawn)
AC40: 11.5 µM

Cc1cc2c(cc1S(=O)(=O)N1CCc3ccccc31)NC(=O)CO2
AC40: 2.18 µM

O=C(Cc1ccccc1)N1CCN(c2ccc([N+](=O)[O-])cc2)CC1
AC40: 0.523 µM

Cc1ccc(S(=O)(=O)N(Cc2ccc(F)cc2)Cc2ccco2)cc1
AC40: 6.76 µM

COc1cc(C)c(CN2CCN(S(=O)(=O)c3ccc(Cl)s3)CC2)cc1OC
AC40: 0.525 µM

COc1ccccc1-c1ccc2c(c1)C(C)(Cc1ccc(OC(F)(F)F)cc1)C(=O)N2 (stereo not drawn)
AC40: 2.47 µM

COC(=O)c1ccc(NC(=O)c2cccnc2)cc1
AC40: 1.86 µM

C[C@H]1CN([C@@H](C)CO)C(=O)c2cccc(NS(=O)(=O)c3ccc(F)cc3)c2O[C@H]1CN(C)Cc1ccc(C(F)(F)F)cc1
AC40: 1.3 µM

CC(=O)Nc1ccc(NC(=O)CN(c2cc(Cl)ccc2Cl)S(C)(=O)=O)cc1
AC40: 1.14 µM

O=S(=O)(c1ccccc1)N(CC(F)(F)F)c1ccc(C(O)(C(F)(F)F)C(F)(F)F)cc1
AC40: 6.8 µM

Clc1ccc(-c2nnc(-c3ccccc3)nc2N2CCSCC2)cc1
AC40: 17.7 µM

COc1ccc(C(C)(O)c2nc(-c3ccc(S(C)(=O)=O)cc3)cs2)cc1 (stereo not drawn)
AC40: 7.7 µM

COc1ccc(Cc2nc(-c3ccc(NC(=O)c4cccnc4)cc3)no2)cc1
AC40: 0.991 µM

CCOC(=O)C1=C[C@@H](C(C)(C)C)N(S(=O)(=O)c2ccc(C)cc2)[C@H]1c1ccccc1
AC40: 3.62 µM

CS(=O)(=O)N(CC(=O)N1CCN(c2ccccc2)CC1)c1cccc(Br)c1
AC40: 17.8 µM

Cc1cccc(C)c1-n1nnnc1C(c1cccs1)N1CCC(n2c(=O)[nH]c3ccccc32)CC1 (stereo not drawn)
AC40: 5.87 µM

CC(OC(=O)C1CCCC1)C(=O)Nc1ccc(C(N)=O)cc1 (stereo not drawn)
AC40: 15.8 µM

Cc1c(C(=O)OCC(=O)c2c(N)n(CC(C)C)c(=O)n(C)c2=O)oc2ccccc12
AC40: 8.24 µM

O=C(CSc1nnc(Cn2cnc3ccccc32)o1)c1ccccc1
AC40: 7.68 µM

Cc1ccc(CN(CC(O)COc2cccc3[nH]cc(C)c23)C(C)(C)C)cc1 (stereo not drawn)
AC40: 2.49 µM

O=C(NCc1ccc(Cl)cc1)C1CCC(CNc2c(N3CCCC3)c(=O)c2=O)CC1 (stereo not drawn)
AC40: 6.36 µM

Oc1ccc(C[C@@H]2CNCCN2CCC23CC4CC(CC(C4)C2)C3)cc1
AC40: 6.79 µM

CCC(=O)N(CC)c1nc(-c2ccc(OC)cc2)cs1
AC40: 3.53 µM

CC(=O)Nc1ccc(NC(=O)CN(c2cccc([N+](=O)[O-])c2)S(C)(=O)=O)cc1
AC40: 0.482 µM

O=C(Nc1cccnc1)c1ccc(Oc2ccccc2)cc1
AC40: 2.19 µM

O=C(c1cc(C2CC2)on1)N1CCCC(N2CCN(c3cccc(C(F)(F)F)c3)CC2)C1 (stereo not drawn)
AC40: 10.8 µM

Cc1ccc(OC(=O)N(C)C[C@H]2OCc3ccccc3-c3c(n(C)c4ccccc34)C(=O)N([C@@H](C)CO)C[C@H]2C)cc1
AC40: 4.98 µM

O=C(CC1SC(=Nc2ccc3c(c2)OCCO3)NC1=O)Nc1ccc(F)cc1F (stereo not drawn)
AC40: 0.191 µM

COc1ccccc1-c1ccc(C2[C@@H]3CN(S(=O)(=O)c4ccc(C)cc4)C[C@H]2N3)cc1 (stereo partly drawn)
AC40: 19.7 µM

O=C(CN1CCC(N2CCCCC2)CC1)N1CCCc2ccccc21
AC40: 11.1 µM

COc1ccc2c(c1)CCc1c(C(=O)NCCCn3ccnc3)noc1-2
AC40: 18.9 µM

Cc1ccc2c(c1)CC1(CN2C)C(=O)NC(=O)N(C(C)C)C1=O (stereo not drawn)
AC40: 12 µM

Cc1ccc(NC(=O)CN2CCC(NC(=O)Cc3ccccc3)CC2)c(C)c1
AC40: 0.507 µM

Cc1cccc(OC2(c3ccccc3)OC(=O)c3ccccc32)c1C (stereo not drawn)
AC40: 3.37 µM

CCOC(=O)c1ccccc1NS(=O)(=O)c1ccc(OCC)cc1
AC40: 3.3 µM

Cc1ccccc1Cn1cc(NC(=O)c2cc(-c3cccs3)on2)cn1
AC40: 1.32 µM

O=C(CC1SC(=NCc2ccccc2)NC1=O)Nc1ccccc1 (stereo not drawn)
AC40: 0.632 µM

COc1ccc(NC(=O)N2CCN(c3ccc([N+](=O)[O-])cc3)CC2)cc1
AC40: 1.52 µM

Cc1ccc(-c2nnc(N3CCN(C(=O)COc4ccccc4)CC3)c3ccccc23)cc1
AC40: 0.734 µM

Cc1ccc2c(CN(Cc3ccccc3)Cc3ccccc3)cc(=O)oc2c1
AC40: 6.06 µM

CC(=O)c1cccc(N(C(=O)Cn2nnc3ccccc32)C(C(=O)NCc2ccccc2)c2ccccn2)c1 (stereo not drawn)
AC40: 10.5 µM

COc1ccc(CN2CCn3ncc(C(=O)Nc4ccccc4)c3C2=O)cc1
AC40: 13.4 µM

Cn1ncc(Cl)c1C(=O)Nc1sc2c(c1C(N)=O)CCC2
AC40: 5.65 µM

CC(=O)c1ccc(OCC(=O)OCC(=O)Nc2sccc2C(N)=O)cc1
AC40: 6.46 µM

Cc1ccc(S(=O)(=O)NC(CC(C)C)C(=O)N2CCCCCCC2)cc1 (stereo not drawn)
AC40: 1.59 µM

Cc1cc(N2CCC(C(N)=O)CC2)nc(-c2ccccc2)n1
AC40: 3.95 µM

O=C(NCc1cccs1)C1Cc2c(-c3ccc(Cl)cc3)ccnc2O1 (stereo not drawn)
AC40: 8.86 µM

CCOc1ccc(NC(=O)CN2CCC(n3cnc4cc(F)ccc43)CC2)cc1
AC40: 2.84 µM

COc1cc(-c2cnc3c(NC(C)=O)cc(-c4ccccc4CN(C)C)cn23)cc(OC)c1OC
AC40: 8.19 µM

Cc1noc(C)c1S(=O)(=O)Nc1ccc2c(c1)C(=O)N([C@@H](C)CO)C[C@@H](C)[C@@H](CN(C)Cc1ccc3c(c1)OCO3)OCCCC[C@@H](C)O2
AC40: 3.78 µM

CNC(=O)c1cccn(Cc2ccc(C(F)(F)F)cc2)c1=O
AC40: 17.5 µM

CCC(=O)Nc1ccc(C(=O)Cn2ncc(Cl)c(Cl)c2=O)cc1
AC40: 1.63 µM

O=C(c1cccs1)N1CCN(c2nnc(-c3ccccc3)c3ccccc23)CC1
AC40: 1.65 µM

CSCCC(c1nnnn1-c1c(C)cccc1C)N1CCC2(CC1)C(=O)NCN2c1ccccc1 (stereo not drawn)
AC40: 4.64 µM

O=C(Cc1ccc(Cl)cc1)c1c[nH]c(C(=O)NCc2cccnc2)c1
AC40: 3.56 µM

CCOC(=O)C1(N(CC)CC)Sc2cc(C)ccc2NC1=O (stereo not drawn)
AC40: 3.28 µM

Cc1cccc2sc(N3CCN(C(=O)c4cccs4)CC3)nc12
AC40: 16.7 µM

COc1ccc(S(=O)(=O)N2CC[C@@H]3[C@H](CO)Nc4ccc(-c5ccccc5F)cc4[C@@H]32)cc1
AC40: 12.4 µM

COc1cccc(-c2ccc(C3[C@@H]4CN(Cc5ccccn5)C[C@H]3N4)cc2)c1 (stereo partly drawn)
AC40: 13.5 µM

Cc1csc(NC(=O)CSc2nsc(SCC(=O)Nc3nc(C)cs3)c2C#N)n1
AC40: 4.36 µM

CCOC(=O)c1c(C)n(C)c2ccc(OCC(O)Cn3nc(C)c(Br)c3C)cc12 (stereo not drawn)
AC40: 0.556 µM

Cc1cc(C)c2c(-n3cccc3)c(C(=O)NNS(=O)(=O)c3ccc(F)cc3)sc2n1
AC40: 5.62 µM

CC(C)c1ccc(NC(=O)c2ccc3c(c2)CCN3S(C)(=O)=O)cc1
AC40: 13.9 µM

CC(C)(C)C(=O)Nc1sc2c(c1-c1nc3ccccc3[nH]1)CCCC2
AC40: 18.4 µM

COc1ccc(NC(=O)Cn2ncc(Cl)c(Cl)c2=O)cc1S(=O)(=O)N1CCOCC1
AC40: 1.6 µM

Cc1ccc2oc(-c3ccc(NC(=O)c4cccnc4)cc3)nc2c1
AC40: 2.03 µM

O=C(NCc1cccs1)c1ccc(Cl)c(S(=O)(=O)N2CCCC2)c1
AC40: 3.54 µM

COc1ccc([C@H]2/C=C\CN(S(=O)(=O)/C=C/c3ccccc3)[C@@H](C)C(=O)N2Cc2ccc(F)cc2)cc1
AC40: 5.99 µM

OC(COc1ccc(CNCCc2ccc(C(F)(F)F)cc2)cc1)CN1CCCCC1 (stereo not drawn)
AC40: 0.9 µM

COc1cc(-c2nnn(CC#N)n2)ccc1OCc1ccccc1
AC40: 0.296 µM

C=C[C@H]1C(C(=O)OCC)=CC[C@@H](c2ccccc2)N1S(=O)(=O)c1ccc(C)cc1
AC40: 0.249 µM

CCO[C@H]1OC(C(=O)Nc2ccccc2)=C[C@@H](c2csc3ccccc23)[C@@H]1CCCO
AC40: 15.7 µM

Cc1ccc(-n2cccn2)c(CN2CCCC(C(=O)c3sccc3C)C2)c1 (stereo not drawn)
AC40: 9.08 µM

O=C1Nc2cc(S(=O)(=O)N3CCCC3)ccc2N2CCCC12 (stereo not drawn)
AC40: 16.6 µM

Cc1cc(C)c2c(-n3cccc3)c(C(=O)NNS(=O)(=O)c3ccccc3)sc2n1
AC40: 4.82 µM

O=C(C1CCC1)N1CCN(S(=O)(=O)c2ccccc2)CC1
AC40: 2.24 µM

O=S1(=O)CCOC[C@H](CC2CCCCC2)N1Cc1ccc(F)cc1
AC40: 9.18 µM

COc1ccccc1/C=C1\SC(=O)N(CCC(=O)NCCCn2ccnc2)C1=O
AC40: 2.07 µM

CC(=O)Nc1cc(C(=O)OCc2cccc([N+](=O)[O-])c2)ccc1C
AC40: 10.4 µM

Cc1c(C(=O)N2CCN(c3ccccn3)CC2)sc2ncnc(N3CCN(c4ccccc4)CC3)c12
AC40: 10.9 µM

CN1CCN(C(=O)CSc2nc(-c3cccs3)cc(-c3cccs3)c2C#N)CC1
AC40: 2.77 µM

CC(C)C(OC(=O)c1cccs1)C(=O)NC1CCCCC1 (stereo not drawn)
AC40: 2.58 µM

CC(=O)c1ccc(N2CCN(c3ccc(S(=O)(=O)NCCCN(C)C)cc3[N+](=O)[O-])CC2)cc1
AC40: 1.22 µM
